This is an account of results in article PMC8710297, “Identification of potent SENP1 inhibitors that inactivate SENP1/JAK2/STAT signaling pathway and overcome platinum drug resistance in ovarian cancer” (Clinical and Translational Medicine, 2021).

In this assay the test system is STAT3. In words: IHC staining of pSTAT3 in xenograft tumor samples. Format: in vivo, mice. The following applies: IGROV1 CR xenograft tumor samples. The method, then:
Cell viability was measured by SRB assay. […] Data were represented as mean ± SD (n = 3). (B) Colony formation assay in cells treated as indicated. […] (D) Growth curves of xenograft tumors are shown in (C). Data are represented as means ± SEM, n = 6 mice/group. **p < 0.01. […] (F) IGROV1 CR xenograft tumor growth curve by indicated treatments. Data are represented as means ± SD, n = 6 tumors/group. **p < 0.01. (G) Immunohistochemistry (IHC) staining against pSTAT3 antibodies of tumor samples from four groups of mice (magnification, 200x) (Upper).
Immun ohistochemical (IHC) sta i n in g an d scor ing we r e performed as prev iou sl y described (2).
The qu anti ficatio n of immunohistochemical sta in ing wa s scored blindly at lea st by two independent obser vers. Antibodies used in IHC as say are: SENP1 (ab108981, Abcam, Cambridge, UK), JA K 2 , p‐STAT 3 (ab76315; Abcam), Bc l‐xL (2764S; Cell Signaling Technology) (#3776, Cell Signaling Technologies, Danvers, MA, USA).
11. Cellular thermal shift assay and in vitro thermal shift assay
Cellular thermal shift assay was as previously described (5). Briefly, cells were pretreated with MG132 (10 µM, 1 hour) then incubated wi th DMSO, Mc, UA or UAMMC9 (2 µM) for 4 hours. […]

In the case of `C[C@H]1[C@H](C)CC[C@]2(C(=O)NCC(=O)N(C)CCO)CC[C@]3(C)C(=CC[C@@H]4[C@@]5(C)CC[C@H](O)C(C)(C)[C@@H]5CC[C@]43C)[C@H]12` [UAMMC9], the “activation of STAT3 in vivo (pSTAT3 IHC)” value was “inhibit the activation of STAT3”.
